According to patent US5216011A (priority 1989, dated 1993):
Like-named read-outs stand apart in the source and are kept apart here.

Experiments:
[1] = Apparent pH of propylene glycol before and after sodium bicarbonate treatment; assay type: physicochemical; details: after 1:10 dilution with water
Experimental: Into a 50 mL Erlenmeyer flask containing 25 mL of neat propylene glycol was added 25 mg sodium bicarbonate. The mixture was stirred for 10 minutes. After standing for 30 minutes, the mixture was then filtered through a Millex-SR filter (Millipore Corp., P/N#SLSR025NS) to remove undissolved sodium bicarbonate. Apparent pH of propylene glycol before and after the treatment (after 1:10 dilution with water) was measured and were 6.5 and 8.4, respectively.

[2] = Solution stability of mitomycin C in non-aqueous solvents (Table V); assay type: physicochemical
Excerpt: ^a All solutions on test in amber vials and nitrogen purged.
^b The pH of these vehicles was adjusted to 7.0 with citric acid.
^c Dried over molecular sieve.

[3] = Predicted stability of mitomycin C at different temperatures (aqueous degradation kinetics)
[4] = Stability of mitomycin C (5 mg/mL) in polyethylene glycols; assay type: physicochemical
[5] = cited from earlier work; for stable for: 20-40 mcg/mL, room temperature; for degradation product: aqueous
[6] = neutral pH, unbuffered solution, Ref. 6; cited from earlier work
[7] = Pseudo first-order rate constants for degradation of mitomycin C in neat propylene glycol; assay type: physicochemical
Experimental: ^a Data were taken from Table VI. m:month.
^b Predicted from 40° C. data.

[8] = Excerpt: The effect of pretreatment of propylene glycol with sodium bicarbonate and carbon (Darco G-60) was investigated.

## CC(O)CO (stereo not drawn) [propylene glycol]
[1]; after sodium bicarbonate treatment
  Apparent pH after treatment: 8.4
[1]; before sodium bicarbonate treatment
  Apparent pH before treatment: 6.5

## CO[C@@]12[C@H](COC(N)=O)C3=C(C(=O)C(C)=C(N)C3=O)N1C[C@@H]1N[C@@H]12 [mitomycin C]
[2]; 2-pyrrolidone (2-Pyr)
  Stability: Slightly lower stability
[2]; DMA, NMP and PG
  Stability: Excellent stability
[2]; ethanol
  Stability: surprisingly poor
[2]; propylene glycol, vs neat solvent
  Effect of addition of 2% water on stability: appeared to increase stability
[3]; 5° C., predicted
  t50: 7.6 y
  t90: 420 days
[3]; 5° C., predicted from E act
  decomposition rate constant: 1.04e-05 h⁻¹
[3]; 5° C., unbuffered aqueous solution
  predicted t90: about one
[3]; 25° C.
  t50: 0.7 y
  t90: 40 days
[3]; 25° C., 0.05M phosphate buffer, pH 7.43
  decomposition rate constant: 0.00011 h⁻¹
[3]; in water, 25° C.
  time until potency falls to 90% of its original value: 40 days
[4]; PEG 200, 300 and 400
  Stability: poor and variable stability
[4]; PEG 400
  Effect of purging with nitrogen on stability: improved stability
[4]; PEG 400, sodium glycodeoxycholate
  Effect of pH adjustment to 6.2 on stability: unsuccessful
[4]; PEG, nitrogen purged solutions
  Effect of propyl gallate on stability: not to improve stability
[5]; 0.9% sodium chloride injection
  stable for: 12 h
[5]; 5% dextrose injection
  stable for: 3 h
[5]; aqueous solutions
  pH of maximum stability: 7-8
[5]; pH above 7
  degradation product: hydrolyzed to 7-hydroxymitosane
[5]; pH below 7
  degradation product: converted to 1-hydroxy-2,7-diaminomitosanes
[5]; in water at 25° C.
  time to loss of 10% potency: about 40 days
[5]; sodium/lactate injection
  stable for: 24 h
[6]
  E act (activation energy for decomposition): 19.4 kcal/mol
[7]; 4-40° C.
  Arrhenius activation energy, Ea: 16.5 kcal/mol
[7]; 4° C.
  time for which potency will remain greater than 90% of initial: more than 30 months
[7]; 4 °C
  t90: 38 months
[7]; 4 °C (277 K), m: month
  10^2 ko (pseudo first-order rate constant): 0.276 m^-1
[7]; 4 °C, m: month
  t90 predicted from 40° C. data: 39 m
[7]; 25 °C
  t90: 3.9 months
[7]; 25 °C (298 K), m: month
  10^2 ko (pseudo first-order rate constant): 2.69 m^-1
[7]; 40 °C
  t90: 37 days
[7]; 40 °C (313 K), m: month
  10^2 ko (pseudo first-order rate constant): 8.40 m^-1
[8]; PG and PG/water, 25° C.
  Effect of air vs. nitrogen on stability: more stable in the presence of nitrogen
[8]; all PG formulations, 25° C. and 4° C.
  Stability: Excellent stability
[8]; glycerin
  Stability: poor stability
[8]; propylene glycol
  Effect of 5% and 10% water on stability: do not adversely affect, and may actually improve, mitomycin C stability
  Effect of pretreatment of propylene glycol with carbon (Darco G-60) on stability: did not significantly improve mitomycin C stability
  Effect of pretreatment of propylene glycol with sodium bicarbonate on stability: significantly improved
[8]; propylene glycol, vs control solution
  Effect of three antioxidants on stability: do not significantly improve mitomycin C stability
